Experimental data published in PMC12428754, “Testing Strategies for Metabolite-Mediated Neurotoxicity” (International Journal of Molecular Sciences, 2025).
Read-outs that look alike come from different tables or passages of the source.

How the values were obtained:
LUHMES cells = test: MitoMet (UKN4b) neurite outgrowth assay; assay type: cell-based, human; details: for IC25: benchmark response 25%, neurite area, 24 h exposure, three independent experiments, read-out: BMC25 neurite outgrowth
Procedure: Figure 1 (A) A strategy scheme to assess metabolite-mediated hazard in NAMs used for neurotoxicity or developmental neurotoxicity. Parent and metabolite compounds are tested separately in the respective assay. This strategy is applicable when there is prior knowledge of metabolite formation. A decision rule based on the relative toxicities (X) of the parent and metabolite may be applied to decide whether next-generation risk assessment (NGRA) should be applied to the metabolite. The value of X may be defined according to the problem formulation and the NAM used. (B) An assay scheme of the neurite outgrowth assay used here for exemplification: Proliferating LUHMES cells were replated one day before differentiation was initiated (day −1). After two days (day 2) in differentiation medium, the cells were replated into assay format (96-well). At this point, neurite growth was re-initiated. The cells were treated with toxicants 1 h after replating. Neurite outgrowth and viability were determined 24 h later, using automated high content imaging. (C) Comparison of neurite outgrowth of cultures treated with bromethalin and desmethyl-bromethalin one exemplary parent/metabolite pair (chemical structures shown). […] The curves are based on data from three independent experiments and were fitted using a four-parameter Hill function. Data points shown are arithmetic means of data from independent experiments ±SEM. In each independent experiment, the technical replicates were measured and averaged. A benchmark response (BMR) of 25% was used as specified in the detailed assay description, and the respective benchmark concentration (BMC25) was determined. […] (D) Microscopic images of calcein-stained LUHMES cells. Similar images are used for neurite quantification. Treatment with 40 nM of the parent (left) or metabolite (right). The scale bar in orange corresponds to 50 µm. […] It stands under panel C and to the right of panel D, and was assigned to C.
The MitoMet neurite outgrowth assay was performed as previously described. In brief, all cell culture dishes and flasks were pre-coated with 50 μg/mL poly-l-ornithine (PLO) and 1 μg/mL fibronectin. Proliferating LUHMES cells were maintained in AdvDMEM/F12 containing L-glutamine (2 mM), N2 supplement (1x), and FGF (40 ng/mL). For pre-differentiation, the cells were replated at a density of 46,000 cells/cm^2 one day prior to the induction of differentiation (defined as the day of differentiation, Day −1). Differentiation was initiated by exchanging the culture medium for AdvDMEM/F12 supplemented with L-glutamine (2 mM), N2 supplement (1x), dibutyryl-cAMP (1 mM), tetracycline (1 µg/mL), and GDNF (2 ng/mL). After two days of differentiation (Day 2), the cells were replated (100,000 cells/cm^2) into 96-well plates. The final assay medium consisted of glucose-free AdvDMEM/F12 supplemented with galactose (18 mM), L-glutamine (2 mM), and tetracycline (1 µg/mL). One hour after replating, the cells were treated with a 10× concentrated stock solution of the test compound. Neurite outgrowth and viability were determined 24 h later, using automated high content imaging.
(§1) The image acquisition and analysis were conducted according to established protocols. The cells were stained with Hoechst H-33342 (1 µg/mL) to visualise nuclei and calcein-AM (1 µM) to label viable cell structures. Fluorescent images were acquired using an automated imaging system.

[1] = test system: hiPSC-derived immature human dorsal root ganglia neuron-like cells; test: PeriTox (UKN5a) neurite outgrowth assay; assay type: cell-based; details: for parent/metabolite potency ratio (BMC25): listed under the metabolite
Procedure: PeriTox assay was performed as previously described. In brief, cryopreserved hiPSC-derived immature human dorsal root ganglia neuron-like cells were thawed and plated at a density of 100,000 cells/cm^2 into matrigel-coated 96-well plates. The cells were cultured in 75 µL PeriTox differentiation medium (PDM) consisting of 25% KSR-S and 75% N2-S media supplemented with 1.5 µM CHIR99021, 1.5 µM SU5402, and 5 µM DAPT (KSR-S: knockout DMEM with 15% serum replacement, 1x Glutamax, 1x nonessential amino acids, and […] beta-mercaptoethanol; N2-S: DMEM/F12, with 2 mM Glutamax, 0.1 mg/mL apotransferrin, 1.55 mg/mL glucose, 25 µg/mL insulin, […] putrescine, 30 nM selenium, and 20 nM progesterone). After one hour, 25 µL PDM with 4x concentrated serial dilutions of the test compounds was added to the cells.
as §1, with “system. An image analysis algorithm detected nuclei to define somatic regions, which were then excluded from the total calcein-positive area. The remaining signal was quantified as the neurite area.” for “system.”
In the first step, matched technical replicates were averaged. […] For visualisation, GraphPad Prism 9 was used. […]
Supplementary Figure S1: Comparison of data from the MitoMet test and the PeriTox test. A) Exposure scheme for the PeriTox test (UKN5a):
For testing, cryopreserved hiPSC-derived immature human dorsal root ganglia neuron-like cells were thawed and plated into 96-well plates. Cells were treated with toxicants at one h after plating. Neurite outgrowth and viability were determined at 24 h later, using automated high content imaging. B) Benchmark concentrations (BMC25) were calculated as a measure for “onset of toxicity” for the MitoMet (UKN4b; as described in Figure 1) and UKN5a assay. If no BMC could be determined, the highest tested concentration was used as surrogate endpoint. The arrows indicate the sensitivity shifts of parent vs metabolite in the respective assay. […]

[2] = test system: hiPSC-derived neural crest-like cells; test: cMINC (UKN2) neural crest cell migration assay; assay type: cell-based, human; details: listed under the metabolite
Procedure: Figure 6 The transfer of the metabolisation module to the neural crest cell migration assay (cMINC). (A) A schematic of the cMINC (circular migration of neural crest cells) assay. The cells were seeded around a central stopper to create a cell-free circular area. Migration was initiated 24 h after seeding by removing the stopper. This is defined as the day of migration (DoM) 0. On DoM 1, the cells were exposed to toxicants. After 24 h of exposure, both cell migration and viability were quantified, using automated high-content imaging. (B) Compatibility of the metabolisation module (preincubation with 500 µg/mL S9 at 37 °C for 2 h) with the cMINC assay: The setup was as described in Figure 4 and as exemplified in Figure 5A. No compound was added (solvent control). The S9 mixture (at 500 µg/mL ± NADPH) was added to the normal cell culture medium of the cMINC assay (so that the addition was 10% of the total volume). Data are from three independent experiments. (C,D) The concentration-dependent effects on migration were evaluated for metabolite mixtures generated from bromethalin (C) or chlorfenapyr (D). […] The arrows indicate the direction of sensitivity shift between NADPH-dependent and -independent metabolite mixtures, with accompanying fold change values. The concentrations are given as nominal concentrations of the parent compound. Abbreviations: n.s., not significant. TEXT PRINTED IN THE PICTURE: (C) Bromethalin: x30 | (D) Chlorfenapyr: x15
The MINC assay was performed as previously described. Briefly, 96-well plates were prepared by inserting a central 2 mm diameter stopper (Platypus Technologies, Madison, WI, USA) into pre-coated wells with a composite poly-L-ornithine (PLO; 10 µg/mL), fibronectin (1 µg/mL), and laminin (1 µg/mL) matrix. […] After a further 24 h (DoM 2), cell migration and viability were assessed. […] High content imaging was performed, and data were analysed using the RingAssay V1 software (http://invitrotox.uni-konstanz.de/, accessed on 3 February 2025). […]

Compound | IC25 (LUHMES cells; Homo sapiens) [µM] | effect on peripheral neurite outgrowth ([1]; result in words) | parent/metabolite potency ratio (BMC25) [1] | neurite area, metabolite compared to parent at equimolar concentrations (LUHMES cells; 40 nM, calcein-stained LUHMES cells) | IC25 (LUHMES cells) [µM] | fold change between BMC25 values of parent and metabolite (potency ratio, parent divided by metabolite) (LUHMES cells; listed under the metabolite, >1 = metabolite more potent) [fold] | increase in potency of metabolite compared to parent (BMC25 ratio) [2] [fold]
O=C(c1ccccc1)c1ccccc1 [Benzophenone] | > 500 | neither benzophenone nor its hydroxy metabolite showed any significant effect | – | – | – | – | –
COC(=O)Nc1nc2ccccc2[nH]1 [Carbendazim] | 4.8 | – | 0.2 | – | – | – | –
O=[N+]([O-])c1cc([N+](=O)[O-])c(Nc2c(Br)cc(Br)cc2Br)c(C(F)(F)F)c1 [Desmethyl-bromethalin] | – | – | 3 | clear reduction in the neurite area | 0.014 | 57 | 44
